Test results as given in ChEMBL document CHEMBL3885881, “DrugMatrix”.

Organism: Rattus norvegicus
Assay type: toxicity, organism-based, Sprague-Dawley
Conditions: in vivo, po, 24 h, route oral GAVAGE, time 1 day, […]; for ABSOLUTE BASOPHIL / ABSOLUTE EOSINOPHIL / ABSOLUTE LYMPHOCYTE / ABSOLUTE MONOCYTE / BASOPHIL / EOSINOPHIL / ERYTHROCYTE COUNT / HEMATOCRIT / HEMOGLOBIN / LEUKOCYTE COUNT / LYMPHOCYTE / MEAN CORPUSCULAR HEMOGLOBIN / MEAN CORPUSCULAR HEMOGLOBIN CONCENTRATION / MEAN CORPUSCULAR VOLUME / MONOCYTE / NEUTROPHIL / PLATELET COUNT: tissue Blood; for ALANINE AMINOTRANSFERASE / ALBUMIN / ALKALINE PHOSPHATASE / ASPARTATE AMINOTRANSFERASE / BLOOD UREA NITROGEN / CARBON DIOXIDE / CHLORIDE / CHOLESTEROL / CREATINE PHOSPHOKINASE / CREATININE / GLUCOSE / LACTATE DEHYDROGENASE / LIPASE / PHOSPHORUS / POTASSIUM / SODIUM / TOTAL BILIRUBIN / TOTAL PROTEIN / URIC ACID: tissue Plasma
[1] = 0 mg/kg, vehicle control, dose level Control

Description: DrugMatrix - Regimen: Single

## C=CCN [ALLYLAMINE]
[1]
  ABSOLUTE BASOPHIL: 46.7 cells/µL
  ABSOLUTE EOSINOPHIL: 130 cells/µL
  ABSOLUTE LYMPHOCYTE: 8720 cells/µL
  ABSOLUTE MONOCYTE: 140 cells/µL
  BASOPHIL: 0.43%
  EOSINOPHIL: 1.33%
  ERYTHROCYTE COUNT: 6.45 x10E6/uL
  HEMATOCRIT: 42.2%
  HEMOGLOBIN: 13.33 G/DL
  LEUKOCYTE COUNT: 10.59 x10E3/uL
  LYMPHOCYTE: 82.13%
  MEAN CORPUSCULAR HEMOGLOBIN: 20.67 pg
  MEAN CORPUSCULAR HEMOGLOBIN CONCENTRATION: 31.6 G/DL
  MEAN CORPUSCULAR VOLUME: 65.4 fL
  MONOCYTE: 1.37%
  NEUTROPHIL: 14.3%
  PLATELET COUNT: 1048.67 x10E3/uL
  ALANINE AMINOTRANSFERASE: 44 u/L
  ALBUMIN: 3.93 G/DL
  ALKALINE PHOSPHATASE: 551.33 u/L
  ASPARTATE AMINOTRANSFERASE: 97 u/L
  BLOOD UREA NITROGEN: 13.5 mg/dL
  CARBON DIOXIDE: 37.33 mmol/L
  CHLORIDE: 102.33 MEQ/L
  CHOLESTEROL: 83 mg/dL
  CREATINE PHOSPHOKINASE: 365.33 u/L
  CREATININE: 0.4 mg/dL
  GLUCOSE: 189 mg/dL
  LACTATE DEHYDROGENASE: 170.33 u/L
  LIPASE: 10.67 u/L
  PHOSPHORUS: 11.53 mg/dL
  POTASSIUM: 5.63 MEQ/L
  SODIUM: 144.33 MEQ/L
  TOTAL BILIRUBIN: 0.4 mg/dL
  TOTAL PROTEIN: 6.27 G/DL
  URIC ACID: 0.87 mg/dL
40 mg/kg, dose level Low
  ABSOLUTE BASOPHIL: 26.7 cells/µL
  ABSOLUTE EOSINOPHIL: 160 cells/µL
  ABSOLUTE LYMPHOCYTE: 6420 cells/µL
  ABSOLUTE MONOCYTE: 190 cells/µL
  BASOPHIL: 0.3%
  EOSINOPHIL: 1.9%
  ERYTHROCYTE COUNT: 7.01 x10E6/uL
  HEMATOCRIT: 45.2%
  HEMOGLOBIN: 14.3 G/DL
  LEUKOCYTE COUNT: 8.6 x10E3/uL
  LYMPHOCYTE: 74.17%
  MEAN CORPUSCULAR HEMOGLOBIN: 20.43 pg
  MEAN CORPUSCULAR HEMOGLOBIN CONCENTRATION: 31.67 G/DL
  MEAN CORPUSCULAR VOLUME: 64.6 fL
  MONOCYTE: 2.23%
  NEUTROPHIL: 20.97%
  PLATELET COUNT: 1314 x10E3/uL
  ALANINE AMINOTRANSFERASE: 38 u/L
  ALBUMIN: 3.9 G/DL
  ALKALINE PHOSPHATASE: 499 u/L
  ASPARTATE AMINOTRANSFERASE: 72.33 u/L
  BLOOD UREA NITROGEN: 10 mg/dL
  CARBON DIOXIDE: 38.67 mmol/L
  CHLORIDE: 104 MEQ/L
  CHOLESTEROL: 72.67 mg/dL
  CREATINE PHOSPHOKINASE: 242.67 u/L
  CREATININE: 0.47 mg/dL
  GLUCOSE: 171.33 mg/dL
  LACTATE DEHYDROGENASE: 92.33 u/L
  LIPASE: 15.33 u/L
  PHOSPHORUS: 11.83 mg/dL
  POTASSIUM: 5.73 MEQ/L
  SODIUM: 145 MEQ/L
  TOTAL BILIRUBIN: 0.3 mg/dL
  TOTAL PROTEIN: 6.27 G/DL
  URIC ACID: 1.3 mg/dL
